Laboratory results reported in ChEMBL document CHEMBL3991601, “The target landscape of clinical kinase drugs” (Science, 2017).
Activity calls are given as the source filed them.

How the values were obtained:
[1] = biological target: MAP kinase-activated protein kinase 3 (Homo sapiens, UniProt Q16644)
[2] = biological target: Serine/threonine-protein kinase 38-like (Homo sapiens, UniProt Q9Y2H1)
[3] = biological target: 5'-AMP-activated protein kinase subunit gamma-1 (Homo sapiens, UniProt P54619)
[4] = biological target: Serine/threonine-protein kinase 38 (Homo sapiens, UniProt Q15208)
[5] = biological target: T1, Uncharacterized protein FLJ45252 (Homo sapiens, UniProt Q6ZSR9)
T1 sequence (Q6ZSR9 whole entry): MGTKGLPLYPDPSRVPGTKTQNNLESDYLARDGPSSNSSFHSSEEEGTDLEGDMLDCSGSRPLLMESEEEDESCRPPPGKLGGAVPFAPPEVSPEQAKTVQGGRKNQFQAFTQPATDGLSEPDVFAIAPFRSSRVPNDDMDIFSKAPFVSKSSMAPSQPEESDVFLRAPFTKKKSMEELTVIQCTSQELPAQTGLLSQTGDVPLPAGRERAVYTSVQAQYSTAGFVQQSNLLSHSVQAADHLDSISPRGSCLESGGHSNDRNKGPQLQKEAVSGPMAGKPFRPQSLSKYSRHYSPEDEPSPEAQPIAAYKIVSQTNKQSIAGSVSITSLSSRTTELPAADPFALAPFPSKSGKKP

[6] = biological target: T2, Dual specificity mitogen-activated protein kinase kinase 4 (Homo sapiens, UniProt P45985)
T2 sequence (P45985 whole entry): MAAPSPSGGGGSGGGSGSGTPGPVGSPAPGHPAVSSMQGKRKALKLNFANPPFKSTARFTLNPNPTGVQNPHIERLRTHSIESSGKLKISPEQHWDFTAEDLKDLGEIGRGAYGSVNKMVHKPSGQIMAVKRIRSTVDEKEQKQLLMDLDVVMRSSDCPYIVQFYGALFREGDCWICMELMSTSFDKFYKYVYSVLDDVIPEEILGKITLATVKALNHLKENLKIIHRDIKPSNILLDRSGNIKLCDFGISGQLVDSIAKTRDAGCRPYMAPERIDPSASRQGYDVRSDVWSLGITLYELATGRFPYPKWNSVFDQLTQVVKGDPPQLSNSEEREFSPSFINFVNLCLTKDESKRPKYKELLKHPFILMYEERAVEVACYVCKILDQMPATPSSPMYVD

[7] = biological target: Tyrosine-protein kinase Fgr (Homo sapiens, UniProt P09769)
[8] = biological target: Dual specificity tyrosine-phosphorylation-regulated kinase 1B (Homo sapiens, UniProt Q9Y463)
[9] = biological target: T3, Tyrosine-protein kinase Mer (Homo sapiens, UniProt Q12866)
T3 sequence (Q12866 whole entry): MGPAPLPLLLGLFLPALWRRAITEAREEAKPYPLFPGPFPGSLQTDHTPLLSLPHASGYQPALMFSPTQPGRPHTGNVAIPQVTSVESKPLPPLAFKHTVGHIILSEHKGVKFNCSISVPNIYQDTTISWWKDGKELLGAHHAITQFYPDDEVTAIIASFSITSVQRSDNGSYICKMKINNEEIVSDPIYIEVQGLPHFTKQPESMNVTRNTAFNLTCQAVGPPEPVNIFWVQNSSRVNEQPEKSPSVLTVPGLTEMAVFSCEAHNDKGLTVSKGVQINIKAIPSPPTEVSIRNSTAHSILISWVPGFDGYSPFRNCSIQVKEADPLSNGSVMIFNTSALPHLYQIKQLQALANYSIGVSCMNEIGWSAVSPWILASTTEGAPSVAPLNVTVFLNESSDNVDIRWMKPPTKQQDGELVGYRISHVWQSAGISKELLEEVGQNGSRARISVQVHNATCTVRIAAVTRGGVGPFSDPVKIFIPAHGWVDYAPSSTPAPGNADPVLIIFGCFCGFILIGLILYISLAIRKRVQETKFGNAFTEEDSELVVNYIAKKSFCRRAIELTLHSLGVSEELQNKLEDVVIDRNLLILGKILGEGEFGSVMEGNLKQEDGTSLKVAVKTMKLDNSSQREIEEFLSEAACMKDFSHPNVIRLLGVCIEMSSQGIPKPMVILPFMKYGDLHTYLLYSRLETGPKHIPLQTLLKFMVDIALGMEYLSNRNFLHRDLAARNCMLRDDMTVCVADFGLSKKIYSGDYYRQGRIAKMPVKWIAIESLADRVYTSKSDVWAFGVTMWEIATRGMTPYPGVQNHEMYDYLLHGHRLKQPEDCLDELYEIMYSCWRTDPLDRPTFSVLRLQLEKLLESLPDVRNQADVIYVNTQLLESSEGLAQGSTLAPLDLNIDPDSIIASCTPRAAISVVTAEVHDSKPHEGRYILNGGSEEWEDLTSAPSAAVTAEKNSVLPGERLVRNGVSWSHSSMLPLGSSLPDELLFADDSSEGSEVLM

[10] = biological target: Serine/threonine-protein kinase Nek7 (Homo sapiens, UniProt Q8TDX7)
[11] = biological target: Cyclin-dependent kinase 10 (Homo sapiens, UniProt Q15131)
[12] = biological target: Tyrosine-protein kinase JAK2 (Homo sapiens, UniProt O60674)

Measured: Kd
Also: in the data inactive means no Kd found up to 30 µM.

Chain of Serine/threonine-protein kinase Nek7 (Q8TDX7 whole entry): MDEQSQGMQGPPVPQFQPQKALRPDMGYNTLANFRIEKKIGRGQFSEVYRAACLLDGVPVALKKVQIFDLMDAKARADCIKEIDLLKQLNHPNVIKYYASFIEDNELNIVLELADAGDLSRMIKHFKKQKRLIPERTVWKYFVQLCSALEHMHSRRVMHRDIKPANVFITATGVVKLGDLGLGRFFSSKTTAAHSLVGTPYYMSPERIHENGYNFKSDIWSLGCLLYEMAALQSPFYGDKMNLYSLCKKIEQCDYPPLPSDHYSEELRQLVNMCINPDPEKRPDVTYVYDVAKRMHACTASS
Chain of Serine/threonine-protein kinase 38-like (Q9Y2H1 whole entry): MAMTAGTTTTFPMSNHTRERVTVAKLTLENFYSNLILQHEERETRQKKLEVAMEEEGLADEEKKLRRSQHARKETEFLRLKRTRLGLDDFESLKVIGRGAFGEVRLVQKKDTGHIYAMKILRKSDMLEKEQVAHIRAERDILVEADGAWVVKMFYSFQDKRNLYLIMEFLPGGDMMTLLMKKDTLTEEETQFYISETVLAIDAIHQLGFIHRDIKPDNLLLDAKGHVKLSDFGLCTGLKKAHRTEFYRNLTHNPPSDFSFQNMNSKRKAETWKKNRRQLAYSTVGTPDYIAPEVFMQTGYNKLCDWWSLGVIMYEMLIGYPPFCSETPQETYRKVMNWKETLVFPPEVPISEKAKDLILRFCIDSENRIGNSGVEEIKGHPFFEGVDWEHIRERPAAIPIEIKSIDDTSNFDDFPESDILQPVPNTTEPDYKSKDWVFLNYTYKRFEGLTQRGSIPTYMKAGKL
Chain of 5'-AMP-activated protein kinase subunit gamma-1 (P54619 whole entry): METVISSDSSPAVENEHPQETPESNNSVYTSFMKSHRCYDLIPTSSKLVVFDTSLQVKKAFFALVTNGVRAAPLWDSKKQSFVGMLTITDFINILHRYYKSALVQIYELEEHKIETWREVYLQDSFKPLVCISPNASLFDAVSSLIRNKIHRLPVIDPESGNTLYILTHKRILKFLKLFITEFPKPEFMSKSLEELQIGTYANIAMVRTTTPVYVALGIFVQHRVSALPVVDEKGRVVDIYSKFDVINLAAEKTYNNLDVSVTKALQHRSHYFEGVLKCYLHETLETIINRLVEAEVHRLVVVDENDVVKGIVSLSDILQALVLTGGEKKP
Chain of Tyrosine-protein kinase Fgr (P09769 whole entry): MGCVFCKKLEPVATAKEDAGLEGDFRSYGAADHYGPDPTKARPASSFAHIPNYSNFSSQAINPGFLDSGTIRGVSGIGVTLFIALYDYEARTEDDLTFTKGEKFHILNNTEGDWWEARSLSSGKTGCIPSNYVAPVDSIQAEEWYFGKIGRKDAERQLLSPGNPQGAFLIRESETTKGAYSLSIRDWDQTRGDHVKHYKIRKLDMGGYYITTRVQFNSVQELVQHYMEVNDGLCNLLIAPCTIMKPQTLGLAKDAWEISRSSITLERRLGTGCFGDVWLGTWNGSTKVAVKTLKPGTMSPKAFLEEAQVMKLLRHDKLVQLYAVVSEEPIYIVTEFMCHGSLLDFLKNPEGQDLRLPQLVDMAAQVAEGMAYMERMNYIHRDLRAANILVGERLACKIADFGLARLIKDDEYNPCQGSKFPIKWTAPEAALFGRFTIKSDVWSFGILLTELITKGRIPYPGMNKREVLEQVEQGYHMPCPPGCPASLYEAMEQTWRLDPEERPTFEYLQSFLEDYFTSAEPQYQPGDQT
Chain of Cyclin-dependent kinase 10 (Q15131 whole entry): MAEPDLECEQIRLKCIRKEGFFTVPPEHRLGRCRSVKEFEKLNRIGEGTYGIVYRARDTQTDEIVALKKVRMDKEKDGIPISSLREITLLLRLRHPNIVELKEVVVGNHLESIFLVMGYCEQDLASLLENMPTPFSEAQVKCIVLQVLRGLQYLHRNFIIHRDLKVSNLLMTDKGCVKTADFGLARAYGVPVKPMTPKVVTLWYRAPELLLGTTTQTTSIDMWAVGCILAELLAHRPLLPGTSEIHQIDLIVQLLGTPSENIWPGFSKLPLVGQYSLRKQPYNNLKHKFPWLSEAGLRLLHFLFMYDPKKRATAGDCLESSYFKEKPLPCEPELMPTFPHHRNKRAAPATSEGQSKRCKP
Chain of Dual specificity tyrosine-phosphorylation-regulated kinase 1B (Q9Y463 whole entry): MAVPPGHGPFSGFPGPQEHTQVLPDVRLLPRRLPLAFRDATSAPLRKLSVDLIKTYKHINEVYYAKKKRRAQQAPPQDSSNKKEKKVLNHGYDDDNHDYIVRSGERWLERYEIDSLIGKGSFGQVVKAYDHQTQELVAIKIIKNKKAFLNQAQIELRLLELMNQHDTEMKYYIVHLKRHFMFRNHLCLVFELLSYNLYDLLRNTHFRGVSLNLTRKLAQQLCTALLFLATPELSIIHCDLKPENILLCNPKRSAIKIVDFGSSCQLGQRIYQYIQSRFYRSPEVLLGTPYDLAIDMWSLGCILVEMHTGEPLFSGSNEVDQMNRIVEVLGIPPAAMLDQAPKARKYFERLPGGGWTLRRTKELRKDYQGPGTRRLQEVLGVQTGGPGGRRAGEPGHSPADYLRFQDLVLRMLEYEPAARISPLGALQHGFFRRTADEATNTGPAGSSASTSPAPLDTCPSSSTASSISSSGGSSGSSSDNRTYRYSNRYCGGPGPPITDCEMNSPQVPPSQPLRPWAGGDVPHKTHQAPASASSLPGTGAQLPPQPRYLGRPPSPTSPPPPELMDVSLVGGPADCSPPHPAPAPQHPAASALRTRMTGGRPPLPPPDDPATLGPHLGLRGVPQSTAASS
Chain of Tyrosine-protein kinase JAK2 (O60674 whole entry): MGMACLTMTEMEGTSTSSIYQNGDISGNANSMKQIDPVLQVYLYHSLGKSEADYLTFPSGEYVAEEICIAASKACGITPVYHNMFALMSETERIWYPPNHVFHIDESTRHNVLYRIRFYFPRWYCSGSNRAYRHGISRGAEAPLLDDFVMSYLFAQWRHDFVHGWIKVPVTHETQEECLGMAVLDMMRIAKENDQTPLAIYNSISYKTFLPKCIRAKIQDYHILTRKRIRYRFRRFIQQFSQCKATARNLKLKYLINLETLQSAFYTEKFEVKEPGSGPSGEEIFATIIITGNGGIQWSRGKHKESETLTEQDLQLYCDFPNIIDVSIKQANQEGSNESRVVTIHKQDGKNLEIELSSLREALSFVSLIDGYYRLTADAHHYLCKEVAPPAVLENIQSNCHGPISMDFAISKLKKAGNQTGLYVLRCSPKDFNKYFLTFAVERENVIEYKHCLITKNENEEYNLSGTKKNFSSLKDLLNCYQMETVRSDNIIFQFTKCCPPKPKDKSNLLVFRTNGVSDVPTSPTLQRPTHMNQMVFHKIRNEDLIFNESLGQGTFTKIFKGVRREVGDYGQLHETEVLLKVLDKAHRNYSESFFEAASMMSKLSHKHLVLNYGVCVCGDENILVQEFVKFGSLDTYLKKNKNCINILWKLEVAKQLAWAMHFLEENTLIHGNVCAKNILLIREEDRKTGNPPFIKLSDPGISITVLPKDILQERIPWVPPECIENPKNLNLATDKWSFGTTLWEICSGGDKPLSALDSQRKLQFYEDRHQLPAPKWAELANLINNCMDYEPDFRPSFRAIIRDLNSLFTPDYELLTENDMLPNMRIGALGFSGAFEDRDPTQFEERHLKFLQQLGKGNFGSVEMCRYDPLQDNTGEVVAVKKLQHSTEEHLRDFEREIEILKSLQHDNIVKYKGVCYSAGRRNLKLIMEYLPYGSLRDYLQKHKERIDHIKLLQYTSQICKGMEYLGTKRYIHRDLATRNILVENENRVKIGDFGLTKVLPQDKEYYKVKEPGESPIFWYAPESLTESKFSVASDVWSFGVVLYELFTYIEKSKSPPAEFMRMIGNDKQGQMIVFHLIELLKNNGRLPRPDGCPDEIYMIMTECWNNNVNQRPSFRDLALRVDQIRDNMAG
Chain of MAP kinase-activated protein kinase 3 (Q16644 whole entry): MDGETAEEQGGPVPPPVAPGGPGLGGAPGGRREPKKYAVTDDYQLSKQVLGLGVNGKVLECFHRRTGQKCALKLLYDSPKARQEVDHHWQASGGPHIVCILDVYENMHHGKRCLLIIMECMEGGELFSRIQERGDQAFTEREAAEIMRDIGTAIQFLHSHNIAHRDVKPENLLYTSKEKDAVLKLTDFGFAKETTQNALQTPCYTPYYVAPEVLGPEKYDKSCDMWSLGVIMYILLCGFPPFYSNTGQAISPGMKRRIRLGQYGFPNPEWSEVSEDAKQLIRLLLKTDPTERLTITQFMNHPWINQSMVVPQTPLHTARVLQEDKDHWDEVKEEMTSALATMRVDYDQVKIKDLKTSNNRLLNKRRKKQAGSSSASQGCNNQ
Chain of Serine/threonine-protein kinase 38 (Q15208 whole entry): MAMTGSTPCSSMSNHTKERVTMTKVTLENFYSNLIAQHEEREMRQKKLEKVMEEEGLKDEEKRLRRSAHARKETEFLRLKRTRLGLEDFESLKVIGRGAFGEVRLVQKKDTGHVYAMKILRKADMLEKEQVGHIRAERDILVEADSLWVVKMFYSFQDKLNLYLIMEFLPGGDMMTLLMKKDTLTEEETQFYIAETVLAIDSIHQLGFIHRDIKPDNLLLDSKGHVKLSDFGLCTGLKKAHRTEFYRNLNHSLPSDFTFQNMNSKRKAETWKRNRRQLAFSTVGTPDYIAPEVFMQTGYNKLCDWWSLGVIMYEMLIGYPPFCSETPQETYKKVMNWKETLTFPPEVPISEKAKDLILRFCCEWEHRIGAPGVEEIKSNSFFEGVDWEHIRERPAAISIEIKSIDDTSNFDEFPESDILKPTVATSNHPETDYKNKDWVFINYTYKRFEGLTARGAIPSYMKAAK

CC[C@H](Nc1ncnc2[nH]cnc12)c1nc2cccc(F)c2c(=O)n1-c1ccccc1 [IDELALISIB]
inactive: [1] > 30 µM | [2] > 30 µM | [3] > 30 µM | [4] > 30 µM | [5] > 30 µM | [6] > 30 µM | [7] > 30 µM | [8] > 30 µM

CCc1cnn2c(NCc3ccc[n+]([O-])c3)cc(N3CCCC[C@H]3CCO)nc12 [DINACICLIB]
inactive: [2] > 30 µM | [9] > 30 µM | [3] > 30 µM | [5] > 30 µM | [6] > 30 µM | [10] > 30 µM

CNC(=O)c1cc(Oc2ccc(NC(=O)Nc3ccc(Cl)c(C(F)(F)F)c3)c(F)c2)ccn1 [REGORAFENIB]
inactive: [3] > 30 µM | [5] > 30 µM | [11] > 30 µM | [7] > 30 µM | [10] > 30 µM

CC[C@@H]1C(=O)N(C)c2cnc(Nc3ccc(C(=O)N[C@H]4CC[C@H](N5CCN(CC6CC6)CC5)CC4)cc3OC)nc2N1C(C)C [VOLASERTIB]
inactive: [2] > 30 µM | [12] > 30 µM | [3] > 30 µM | [5] > 30 µM | [11] > 30 µM | [7] > 30 µM | [10] > 30 µM
